This is an account of results in patent publication US20260241012A1, “1,8-NAPHTHYRIDIN-2-ONE HETEROBIFUNCTIONAL BCL6 DEGRADERS” (Treeline Biosciences, Inc., priority 2022, published 2026).

The assay has as its target T1, N-terminal HiBiT tagged BCL6 (Homo sapiens, UniProt P41182).
T1 construct: expressed in transfected cells; host or cells: HT1080 (ATCC CCL-121), stably transduced with lentivirus pLV-UBC-N-HiBiT-BCL6-PGK-puro
Kind of assay: HiBiT based degradation assay. Format: cell-based. The conditions noted are these: HT1080 cells expressing N-terminal HiBiT tagged BCL6, 5 hours of incubation; for Ymin (5 hr): BCL6 degradation normalized with DMSO control; for DC50: four-parameter logistic model, read-out: EC50 (5 hr). The procedure, abridged: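 Degradation measured by luminescence from the Nano-Glo HiBiT lytic reagent (15 min, room temperature), normalized to DMSO controls and fitted to a four-parameter curve.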

Take `CNC(=O)COc1cc2cc(Nc3nc(N4CCN(c5cccc6c(C7CCC(=O)NC7=O)nn(C)c56)CC4)ncc3Cl)cnc2n(C(C)C)c1=O` (centres unmarked) [Compound 166, 2-[[6-[[5-chloro-2-[4-[3-(2,6-dioxo-3-piperidyl)-1-methyl-indazol-7-yl]piperazin-1-yl]pyrimidin-4-yl]amino]-1-isopropyl-2-oxo-1,8-naphthyridin-3-yl]oxy]-N-methyl-acetamide]: the “Ymin (5 hr)” value was “+++ (30% ≤ Ymin < 50%)” and the DC50 was under 10 nM.

Take `CNC(=O)COc1cc2cc(Nc3nc(N4CCC(F)(CN5CCC(c6ccc7c(C8CCC(=O)NC8=O)nn(C)c7c6)CC5)CC4)ncc3Cl)cnc2n(C(C)C)c1=O` (centres unmarked) [Compound 167, 2-[[6-[[5-chloro-2-[4-[[4-[3-(2,6-dioxo-3-piperidyl)-1-methyl-indazol-6-yl]-1-piperidyl]methyl]-4-fluoro-1-piperidyl]pyrimidin-4-yl]amino]-1-isopropyl-2-oxo-1,8-naphthyridin-3-yl]oxy]-N-methyl-acetamide]: the “Ymin (5 hr)” value is listed as “++++ (Ymin < 30%)” and the DC50 was under 10 nM.

As for `CNC(=O)COc1cc2cc(Nc3nc(N4CCN(CC5CCN(c6cccc7c(C8CCC(=O)NC8=O)nn(C)c67)CC5)C[C@@H]4C)ncc3Cl)cnc2n(C(C)C)c1=O` (stereo partly drawn) [Compound 168a, 2-[[6-[[5-chloro-2-[(2S)-4-[[1-[3-(2,6-dioxo-3-piperidyl)-1-methyl-indazol-7-yl]-4-piperidyl]methyl]-2-methyl-piperazin-1-yl]pyrimidin-4-yl]amino]-1-isopropyl-2-oxo-1,8-naphthyridin-3-yl]oxy]-N-methyl-acetamide], the “Ymin (5 hr)” value was “+++ (30% ≤ Ymin < 50%)” and the DC50 fell in the range of 10 to 100 nM.

`CNC(=O)COc1cc2cc(Nc3nc(N4CCN(CC5CCN(c6cccc7c(C8CCC(=O)NC8=O)nn(C)c67)CC5)C[C@H]4C)ncc3Cl)cnc2n(C(C)C)c1=O` (stereo partly drawn) [Compound 168b, 2-[[6-[[5-chloro-2-[(2R)-4-[[1-[3-(2,6-dioxo-3-piperidyl)-1-methyl-indazol-7-yl]-4-piperidyl]methyl]-2-methyl-piperazin-1-yl]pyrimidin-4-yl]amino]-1-isopropyl-2-oxo-1,8-naphthyridin-3-yl]oxy]-N-methyl-acetamide]: the “Ymin (5 hr)” value was “+++ (30% ≤ Ymin < 50%)” and the DC50 is 10 to 100 nM.

Consider `CNC(=O)COc1cc2cc(Nc3nc(N4CCC(CN5CCN(c6cccc7c(C8CCC(=O)NC8=O)nn(C)c67)[C@@H](C)C5)CC4)ncc3Cl)cnc2n(C(C)C)c1=O` (stereo partly drawn) [Compound 169a, 2-((6-((5-chloro-2-(4-(((3S)-4-(3-(2,6-dioxopiperidin-3-yl)-1-methyl-1H-indazol-7-yl)-3-methylpiperazin-1-yl)methyl)piperidin-1-yl)pyrimidin-4-yl)amino)-1-isopropyl-2-oxo-1,2-dihydro-1,8-naphthyridin-3-yl)oxy)-N-methylacetamide], for which the “Ymin (5 hr)” value is listed as “++++ (Ymin < 30%)” and the DC50 is under 10 nM.

On to `CNC(=O)COc1cc2cc(Nc3nc(N4CCC(CN5CCN(c6cccc7c(C8CCC(=O)NC8=O)nn(C)c67)[C@H](C)C5)CC4)ncc3Cl)cnc2n(C(C)C)c1=O` (stereo partly drawn) [Compound 169b, 2-((6-((5-chloro-2-(4-(((3R)-4-(3-(2,6-dioxopiperidin-3-yl)-1-methyl-1H-indazol-7-yl)-3-methylpiperazin-1-yl)methyl)piperidin-1-yl)pyrimidin-4-yl)amino)-1-isopropyl-2-oxo-1,2-dihydro-1,8-naphthyridin-3-yl)oxy)-N-methylacetamide], for which the “Ymin (5 hr)” value is “++++ (Ymin < 30%)” and the DC50 is under 10 nM.

As for `CNC(=O)COc1cc2cc(Nc3nc(N4CCN(CC5CCN(c6cccc7c(C8CCC(=O)NC8=O)nn(C)c67)CC5)CC4)ncc3Cl)cnc2n(CC(F)(F)F)c1=O` (centres unmarked) [Compound 170, 2-[[6-[[5-chloro-2-[4-[[1-[3-(2,6-dioxo-3-piperidyl)-1-methyl-indazol-7-yl]-4-piperidyl]methyl]piperazin-1-yl]pyrimidin-4-yl]amino]-2-oxo-1-(2,2,2-trifluoroethyl)-1,8-naphthyridin-3-yl]oxy]-N-methyl-acetamide], the “Ymin (5 hr)” value is listed as “++++ (Ymin < 30%)” and the DC50 fell in the range of 10 to 100 nM.

Take `CNC(=O)COc1cc2cc(Nc3nc(N4CCC(C(C)(C)N5CCN(c6ccc7c(C8CCC(=O)NC8=O)nn(C)c7c6)CC5)CC4)ncc3Cl)cnc2n(C(C)C)c1=O` (centres unmarked) [Compound 171, 2-[[6-[[5-chloro-2-[4-[1-[4-[3-(2,6-dioxo-3-piperidyl)-1-methyl-indazol-6-yl]piperazin-1-yl]-1-methyl-ethyl]-1-piperidyl]pyrimidin-4-yl]amino]-1-isopropyl-2-oxo-1,8-naphthyridin-3-yl]oxy]-N-methyl-acetamide]: the “Ymin (5 hr)” value is “++ (50% ≤ Ymin < 70%)” and the DC50 is under 10 nM.

For `CNC(=O)COc1cc2cc(Nc3nc(N4CCN(CC5CCN(c6cccc7c(C8CCC(=O)NC8=O)nn(C)c67)CC5)C(C)(C)C4)ncc3Cl)cnc2n(C(C)C)c1=O` (centres unmarked) [Compound 172, 2-[[6-[[5-chloro-2-[4-[[1-[3-(2,6-dioxo-3-piperidyl)-1-methyl-indazol-7-yl]-4-piperidyl]methyl]-3,3-dimethyl-piperazin-1-yl]pyrimidin-4-yl]amino]-1-isopropyl-2-oxo-1,8-naphthyridin-3-yl]oxy]-N-methyl-acetamide], the “Ymin (5 hr)” value is given as “+++ (30% ≤ Ymin < 50%)” and the DC50 is 10 to 100 nM.

With `CNC(=O)COc1cc2cc(Nc3nc(N4C5CC4CN(CC4CCN(c6cccc7c(C8CCC(=O)NC8=O)nn(C)c67)CC4)C5)ncc3Cl)cnc2n(C(C)C)c1=O` (centres unmarked) [Compound 173, 2-[[6-[[5-chloro-2-[3-[[1-[3-(2,6-dioxo-3-piperidyl)-1-methyl-indazol-7-yl]-4-piperidyl]methyl]-3,6-diazabicyclo[3.1.1]heptan-6-yl]pyrimidin-4-yl]amino]-1-isopropyl-2-oxo-1,8-naphthyridin-3-yl]oxy]-N-methyl-acetamide], the “Ymin (5 hr)” value is given as “++ (50% ≤ Ymin < 70%)” and the DC50 lay within 10 to 100 nM.

Consider `CNC(=O)COc1cc2cc(Nc3nc(N4C[C@H]5C[C@@H]4CN5CC4CCN(c5cccc6c(C7CCC(=O)NC7=O)nn(C)c56)CC4)ncc3Cl)cnc2n(C(C)C)c1=O` (stereo partly drawn) [Compound 174a, 2-[[6-[[5-chloro-2-[(1R,4R)-5-[[1-[3-(2,6-dioxo-3-piperidyl)-1-methyl-indazol-7-yl]-4-piperidyl]methyl]-2,5-diazabicyclo[2.2.1]heptan-2-yl]pyrimidin-4-yl]amino]-1-isopropyl-2-oxo-1,8-naphthyridin-3-yl]oxy]-N-methyl-acetamide], for which the “Ymin (5 hr)” value is recorded as “++ (50% ≤ Ymin < 70%)” and the DC50 is under 10 nM.

As for `CNC(=O)COc1cc2cc(Nc3nc(N4C[C@@H]5C[C@H]4CN5CC4CCN(c5cccc6c(C7CCC(=O)NC7=O)nn(C)c56)CC4)ncc3Cl)cnc2n(C(C)C)c1=O` (stereo partly drawn) [Compound 174b, 2-[[6-[[5-chloro-2-[(1S,4S)-5-[[1-[3-(2,6-dioxo-3-piperidyl)-1-methyl-indazol-7-yl]-4-piperidyl]methyl]-2,5-diazabicyclo[2.2.1]heptan-2-yl]pyrimidin-4-yl]amino]-1-isopropyl-2-oxo-1,8-naphthyridin-3-yl]oxy]-N-methyl-acetamide], the “Ymin (5 hr)” value is “+++ (30% ≤ Ymin < 50%)” and the DC50 fell in the range of 10 to 100 nM.

As to `CNC(=O)COc1cc2cc(Nc3nc(N4CCC(CN5C[C@H]6C[C@@H]5CN6c5cccc6c(C7CCC(=O)NC7=O)nn(C)c56)CC4)ncc3Cl)cnc2n(C(C)C)c1=O` (stereo partly drawn) [Compound 175a, 2-[[6-[[5-chloro-2-[4-[[(1R,4R)-5-[3-(2,6-dioxo-3-piperidyl)-1-methyl-indazol-7-yl]-2,5-diazabicyclo[2.2.1]heptan-2-yl]methyl]-1-piperidyl]pyrimidin-4-yl]amino]-1-isopropyl-2-oxo-1,8-naphthyridin-3-yl]oxy]-N-methyl-acetamide], the “Ymin (5 hr)” value was “+++ (30% ≤ Ymin < 50%)” and the DC50 is under 10 nM.

For `CNC(=O)COc1cc2cc(Nc3nc(N4CCC(CN5C[C@@H]6C[C@H]5CN6c5cccc6c(C7CCC(=O)NC7=O)nn(C)c56)CC4)ncc3Cl)cnc2n(C(C)C)c1=O` (stereo partly drawn) [Compound 175b, 2-[[6-[[5-chloro-2-[4-[[(1S,4S)-5-[3-(2,6-dioxo-3-piperidyl)-1-methyl-indazol-7-yl]-2,5-diazabicyclo[2.2.1]heptan-2-yl]methyl]-1-piperidyl]pyrimidin-4-yl]amino]-1-isopropyl-2-oxo-1,8-naphthyridin-3-yl]oxy]-N-methyl-acetamide], the “Ymin (5 hr)” value is recorded as “+++ (30% ≤ Ymin < 50%)” and the DC50 is under 10 nM.

Take `CNC(=O)COc1cc2cc(Nc3nc(N4CC[C@H](CN5CCN(c6ccc7c(C8CCC(=O)NC8=O)nn(C)c7c6)CC5)[C@H](C)C4)ncc3Cl)cnc2n(C(C)C)c1=O` (stereo partly drawn) [Compound 176a, 2-((6-((5-chloro-2-((3S,4S)-4-((4-(3-(2,6-dioxopiperidin-3-yl)-1-methyl-1H-indazol-6-yl)piperazin-1-yl)methyl)-3-methylpiperidin-1-yl)pyrimidin-4-yl)amino)-1-isopropyl-2-oxo-1,2-dihydro-1,8-naphthyridin-3-yl)oxy)-N-methylacetamide]: the “Ymin (5 hr)” value is reported as “+++ (30% ≤ Ymin < 50%)” and the DC50 was under 10 nM.

In the case of `CNC(=O)COc1cc2cc(Nc3nc(N4CC[C@H](CN5CCN(c6ccc7c(C8CCC(=O)NC8=O)nn(C)c7c6)CC5)[C@@H](C)C4)ncc3Cl)cnc2n(C(C)C)c1=O` (stereo partly drawn) [Compound 176b, 2-((6-((5-chloro-2-((3R,4S)-4-((4-(3-(2,6-dioxopiperidin-3-yl)-1-methyl-1H-indazol-6-yl)piperazin-1-yl)methyl)-3-methylpiperidin-1-yl)pyrimidin-4-yl)amino)-1-isopropyl-2-oxo-1,2-dihydro-1,8-naphthyridin-3-yl)oxy)-N-methylacetamide], the “Ymin (5 hr)” value was “+++ (30% ≤ Ymin < 50%)” and the DC50 is under 10 nM.
